≈ marks a conversion by molar mass, not a printed value. Where “and” joins values, the source holds several entries; their conditions need not be identical. Identical values can stand only once. Entries after “also recorded” stand apart in the source; their conditions may differ. Each block holds one molecule with its values, some of them ahead of it.
How the values were obtained:
E. lenta A2 [1] = assay: Anaerobic growth of E. lenta A2 in the presence of tungstate; assay type: cell-based, Eggerthella lenta; details: BHI medium, varying concentrations of tungstate
E. lenta A2 cell lysates = assay: E. lenta A2 lysate assays with tungstate; assay type: biochemical, Eggerthella lenta; details: 500 μM dopamine, 12 hours, room temperature
Protocol: E. lenta A2 was grown either without or with 500 μM dopamine in BHI medium containing 1% (w/v) arginine and 10 mM formate. Cultures were spun down at OD600=0.500 and cell pellets were washed twice with anaerobic, sterile PBS to remove dopamine and any m-tyramine that had accumulated in the culture. Pellets were lysed anaerobically in 50 mM Tris pH 8 followed by addition of 500 μM dopamine (DA) to lysates. Lysates were left at room temperature for 12 hours and were analyzed for m-tyramine production by LC-MS/MS. Peak heights show the relative intensity of each mass and all chromatograms are shown on the same scale.
10 mL turbid 48-hour starter cultures of E. lenta A2 in BHI medium were diluted 1:100 into 20 mL BHI medium containing 1% arginine and 10 mM formate with or without 500 μM dopamine. Cells were pelleted by centrifugation when cultures reached OD600=0.500. Cell pellets were washed twice with PBS and were then re-suspended in 800 μL 50 mM Tris pH 8 containing 4 mg/mL […] protease inhibitor cocktail, followed by anaerobic sonication to lyse the cells. Dopamine was added to crude lysates at a final concentration of 500 μM and the reactions were left for 12 hours at room temperature under anaerobic conditions. […] Supernatant were analyzed by LC-MS/MS to measure dopamine and m-tyramine production using Method A described above. […]

E. lenta A2 [2] = assay: Effect of tungstate on dopamine dehydroxylation in cultures of E. lenta A2; assay type: cell-based, Eggerthella lenta; details: 48 hours, 0.5 mM dopamine
[3] = cited from earlier work
E. faecalis TyrDC [4] = biological target: T1, E. faecalis TyrDC (Enterococcus faecalis, UniProt P0DTQ4); assay: Michaelis-Menten kinetics of E. faecalis TyrDC; details: for Vmax / kcat: substrate of TyrDC, best-fit ± standard error, n=3
T1 sequence (P0DTQ4 1-620): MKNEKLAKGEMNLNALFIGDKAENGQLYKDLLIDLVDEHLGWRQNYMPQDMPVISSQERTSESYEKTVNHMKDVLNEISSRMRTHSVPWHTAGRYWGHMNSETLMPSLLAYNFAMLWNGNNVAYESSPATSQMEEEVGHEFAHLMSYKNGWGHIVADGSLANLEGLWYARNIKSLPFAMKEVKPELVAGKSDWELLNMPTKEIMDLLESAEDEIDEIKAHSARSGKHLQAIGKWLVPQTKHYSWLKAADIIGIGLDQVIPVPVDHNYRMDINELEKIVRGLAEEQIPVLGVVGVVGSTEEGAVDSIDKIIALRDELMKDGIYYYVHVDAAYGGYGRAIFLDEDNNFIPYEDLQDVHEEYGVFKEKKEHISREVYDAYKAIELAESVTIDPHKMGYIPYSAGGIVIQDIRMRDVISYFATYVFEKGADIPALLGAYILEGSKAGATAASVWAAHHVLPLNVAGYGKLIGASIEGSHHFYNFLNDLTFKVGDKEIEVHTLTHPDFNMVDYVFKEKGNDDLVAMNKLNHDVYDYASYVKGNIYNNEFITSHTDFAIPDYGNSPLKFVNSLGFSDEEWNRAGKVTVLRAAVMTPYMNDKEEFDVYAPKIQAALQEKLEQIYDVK

human fecal microbiota = tested on: human fecal microbiota
Protocol: Fecal slurries from neurologically healthy human donors or Parkinson's patients were prepared as described in the ‘enrichment culturing’ section above. These slurries were diluted to a final volume of 300 μL in 20% glycerol and then aliquoted into individual tubes, flash-frozen in liquid nitrogen and stored at −80° C., allowing for experiments to be repeated with the same fecal sample multiple times without freeze-thawing.

E. faecalis TyrDC [5] = biological target: T1, E. faecalis TyrDC; assay: Inhibition of L-dopa decarboxylation by purified TyrDC (LC-MS/MS); details: for preferential inhibition, AADC vs TyrDC: FIG. 4 panels B and E, in vitro; for IC50: IC50, L-dopa decarboxylation by TyrDC, purified E. faecalis TyrDC, 500 μM L-dopa, pH 5.5, best-fit ± standard error, n=3
[6] = Solubility limit noted in the inhibition assays; assay type: physicochemical
E. faecalis MMH594 cells = assay: L-dopa decarboxylation in anaerobic E. faecalis cultures with inhibitor
H. sapiens AADC = biological target: T2, H. sapiens AADC (Homo sapiens, UniProt P20711); assay: Inhibition of L-dopa decarboxylation by purified AADC (LC-MS/MS)
T2 sequence (P20711 1-480): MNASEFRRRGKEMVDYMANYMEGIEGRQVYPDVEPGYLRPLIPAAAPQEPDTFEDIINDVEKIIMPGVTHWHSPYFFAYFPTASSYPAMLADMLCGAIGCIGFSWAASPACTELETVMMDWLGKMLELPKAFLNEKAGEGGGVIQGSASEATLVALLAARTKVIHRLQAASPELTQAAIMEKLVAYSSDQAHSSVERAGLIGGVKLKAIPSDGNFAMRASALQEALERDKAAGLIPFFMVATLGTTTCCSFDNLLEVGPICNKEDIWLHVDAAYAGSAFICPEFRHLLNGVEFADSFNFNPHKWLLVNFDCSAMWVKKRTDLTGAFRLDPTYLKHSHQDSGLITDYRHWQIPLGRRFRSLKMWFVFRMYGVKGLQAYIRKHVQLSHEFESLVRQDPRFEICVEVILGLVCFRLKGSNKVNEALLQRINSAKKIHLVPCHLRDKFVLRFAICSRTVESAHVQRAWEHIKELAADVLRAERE

[7] = Pharmacokinetic experiment in gnotobiotic mice colonized with E. faecalis MMH594; assay type: in vivo; details: L-dopa+carbidopa+AFMT
TyrDC = biological target: T3, TyrDC (Enterococcus faecalis, UniProt P0DTQ4); assay: Identification of a PLP-inhibitor adduct upon incubation of enzymes with AFMT; assay type: biochemical; details: TyrDC or AADC incubated with AFMT for 1 hour
T3 sequence (P0DTQ4 1-620): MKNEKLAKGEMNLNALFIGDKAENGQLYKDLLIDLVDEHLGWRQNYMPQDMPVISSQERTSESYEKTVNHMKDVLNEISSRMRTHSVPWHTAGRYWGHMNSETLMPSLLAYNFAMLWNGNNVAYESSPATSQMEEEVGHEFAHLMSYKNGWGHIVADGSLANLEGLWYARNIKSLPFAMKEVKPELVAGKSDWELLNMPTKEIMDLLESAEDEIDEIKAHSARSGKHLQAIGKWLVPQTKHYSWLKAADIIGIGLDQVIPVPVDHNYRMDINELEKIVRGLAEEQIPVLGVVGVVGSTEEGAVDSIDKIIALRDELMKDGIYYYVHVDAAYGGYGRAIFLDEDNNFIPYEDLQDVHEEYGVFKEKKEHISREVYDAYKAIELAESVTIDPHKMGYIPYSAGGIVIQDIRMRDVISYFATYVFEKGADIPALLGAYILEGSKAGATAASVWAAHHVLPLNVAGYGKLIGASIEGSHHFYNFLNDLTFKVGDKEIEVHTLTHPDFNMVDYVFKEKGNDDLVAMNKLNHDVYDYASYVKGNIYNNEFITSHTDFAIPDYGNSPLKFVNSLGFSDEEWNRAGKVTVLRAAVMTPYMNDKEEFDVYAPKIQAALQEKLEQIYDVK
Protocol: The same buffers as described above were used for each enzyme. 10 μM AADC or TyrDC was incubated with 200 μM PLP and 50 μM AFMT for one hour at room temperature. The reactions were quenched by boiling at 95° C. for 15 minutes. This mix was diluted 1:20 in LC-MS grade methanol and spun down to pellet precipitates. The supernatant was analyzed by LC-MS using Method E described above. The predicted adduct was identified based on the work described in.

HeLa cells = assay: MTS/MTT assay for HeLa cell viability in the presence of AFMT; assay type: cell-based; details: two days treatment
Protocol: HeLa cells were seeded in 100 μL growth medium [(DMEM medium supplemented with 10% FBS (2 mL) and 1× Antibiotic-Antimycotic (100× stock, Invitrogen))] and incubated at 37° C. in 5% CO2 incubator for 1 day. Wells containing growth medium only were used as background controls. Cells were treated with various concentrations of AFMT in quadruplicate. Two days post treatment, 20 μL of CellTiter 96® AQueous One Solution Reagent (Promega) was added to each well. The plates were incubated at 37° C. in 5% CO2 incubator for 2 hours followed by absorbance measurement at 490 nm. To calculate relative cell viability, the readings for each compound concentration were subtracted from the background controls and normalized to vehicle controls.
HeLa cells were seeded into 96-well plates at a density of 1×10^5 cells per well in 100 μL of growth medium [(DMEM medium supplemented with 10% FBS (2 mL) and 1× Antibiotic-Antimycotic (100× stock, Invitrogen))] and incubated at 37° C. in a 5% CO2 incubator for 1 day. Wells containing growth medium only were used as background controls. Cells were treated with various concentrations of AFMT in quadruplicate. […] To calculate relative cell viability, the readings for each compound concentration were subtracted from the background controls and normalized to vehicle controls

[8] = tested on: co-cultures of E. faecalis and E. lenta; assay: L-dopa metabolism by co-cultures of E. faecalis and E. lenta with AFMT; details: 125 μM AFMT, 1 mM d3-phenyl-L-dopa, 48 hours
[9] = substrate: N[C@@H](Cc1ccc(O)cc1)C(=O)O; assay: purified protein, by the assay type; details: other: substrate of TyrDC; best-fit ± standard error, n=3; pH 5.5
[10] = substrate: N[C@@H](Cc1ccc(O)c(O)c1)C(=O)O; assay: purified protein, by the assay type; details: other: substrate of TyrDC, pH 5.5
[11] = read-out: inhibition of AADC at solubility limit

Molecule: [Na+].[Na+].[O]=[W](=[O])([O-])[O-] [tungstate, Sodium tungstate]
growth of E. lenta A2 (E. lenta A2 [1]): without affecting growth; also recorded: no obvious dose-dependent growth defect
dopamine dehydroxylation by E. lenta A2 cell lysates (E. lenta A2 cell lysates): had no effect; also recorded: no dose-dependent effect
dopamine dehydroxylation by E. lenta A2 cultures (E. lenta A2 [2]): inhibits

Vmax (E. faecalis TyrDC [4]): 5.553 ± 0.165 ^ μM/s
kcat (E. faecalis TyrDC [4]): 55.53 ± 2.98 ^ 1/s
Molecule: N[C@@H](Cc1ccc(O)c(O)c1)C(=O)O [L-dopa]
L-dopa reaching the brain ([3]; extensive pre-systemic metabolism in the gut): 1-5%

Molecule: C[C@@](Cc1ccc(O)c(O)c1)(NN)C(=O)O [carbidopa]
kinetics of L-dopa degradation in stool samples (human fecal microbiota; 2 mM carbidopa, 1 mM d3-phenyl-L-dopa, 72 hours): did not alter
endpoint m-tyramine production in stool samples (human fecal microbiota; 2 mM carbidopa, Parkinson's patients and neurologically healthy controls): did not alter
fold less active toward TyrDC relative to AADC (E. faecalis TyrDC [5]; E. faecalis TyrDC vs H. sapiens AADC): 200 fold
preferential inhibition, AADC vs TyrDC (E. faecalis TyrDC [5]): preferentially inhibits human amino acid decarboxylase (AADC) over TyrDC
IC50 (E. faecalis TyrDC [5]): 52 µM
solubility ([6]; E. faecalis cultures, plasma or biological fluid): 2000 µM (≈ 452 µg/mL)
m-tyramine production in patients ([3]; carbidopa administration, previous findings): does not impact
inhibition at 2000 µM (E. faecalis MMH594 cells; Enterococcus faecalis, MMH594CELLS, read-out: inhibition of L-dopa decarboxylation by E. faecalis cultures, at solubility limit of 2 mM): ~50%
inhibition of L-dopa decarboxylation by E. faecalis cultures (E. faecalis MMH594 cells; at solubility limit of 2 mM): 50% inhibition at
IC50 (H. sapiens AADC): 0.21 µM

Molecule: N[C@@](CF)(Cc1ccc(O)cc1)C(=O)O [AFMT]
L-dopa decarboxylation in gut microbiota samples (human fecal microbiota; Parkinson's disease patients and neurologically healthy control subjects, 1 mM d3-phenyl-L-dopa, 72 hours): completely inhibited
serum L-dopa relative to vehicle controls [7]: higher
preferential inhibition, AADC vs TyrDC (E. faecalis TyrDC [5]): preferentially inhibits TyrDC over AADC
IC50 (E. faecalis TyrDC [5]): 4.7 µM and 4.71 µM
solubility ([6]; AADC inhibition assay mixture, AADC inhibition assay): 650 µM (≈ 139 µg/mL)
covalent PLP adduct formation (TyrDC): formed a covalent PLP adduct only in the presence of TyrDC
toxicity to eukaryotic cells (HeLa cells): non-toxic
fold outperforming carbidopa in E. faecalis cultures (E. faecalis MMH594 cells; AFMT vs carbidopa): 1000 fold
EC50 (E. faecalis MMH594 cells; Enterococcus faecalis, MMH594CELLS, read-out: EC50, L-dopa decarboxylation in E. faecalis cultures, E. faecalis MMH594 cells, 0.5 mM L-dopa, anaerobic): 1.4 µM
L-dopa decarboxylation by co-cultures of E. faecalis and E. lenta [8]: reduced
inhibition at 650 µM (H. sapiens AADC; [11]): ~20%
inhibition at 700 µM (H. sapiens AADC; [11]): 20%

Molecule: N[C@@H](Cc1ccc(O)cc1)C(=O)O [Tyrosine, L-tyrosine]
fold higher catalytic efficiency compared to L-dopa (E. faecalis TyrDC [4]; TyrDC): 5 fold
Vmax (E. faecalis TyrDC [4]): 6.363 ± 0.102 µM/s
kcat (E. faecalis TyrDC [4]): 63.63 ± 1.02 s⁻¹

B1: E. faecalis TyrDC (Enterococcus faecalis EnGen0310 = MMH594) (protein)
chain: MKNEKLAKGEMNLNALFIGDKAENGQLYKDLLIDLVDEHLGWRQNYMPQDMPVISSQERTSESYEKTVNHMKDVLNEISSRMRTHSVPWHTAGRYWGHMNSETLMPSLLAYNFAMLWNGNNVAYESSPATSQMEEEVGHEFAHLMSYKNGWGHIVADGSLANLEGLWYARNIKSLPFAMKEVKPELVAGKSDWELLNMPTKEIMDLLESAEDEIDEIKAHSARSGKHLQAIGKWLVPQTKHYSWLKAADIIGIGLDQVIPVPVDHNYRMDINELEKIVRGLAEEQIPVLGVVGVVGSTEEGAVDSIDKIIALRDELMKDGIYYYVHVDAAYGGYGRAIFLDEDNNFIPYEDLQDVHEEYGVFKEKKEHISREVYDAYKAIELAESVTIDPHKMGYIPYSAGGIVIQDIRMRDVISYFATYVFEKGADIPALLGAYILEGSKAGATAASVWAAHHVLPLNVAGYGKLIGASIEGSHHFYNFLNDLTFKVGDKEIEVHTLTHPDFNMVDYVFKEKGNDDLVAMNKLNHDVYDYASYVKGNIYNNEFITSHTDFAIPDYGNSPLKFVNSLGFSDEEWNRAGKVTVLRAAVMTPYMNDKEEFDVYAPKIQAALQEKLEQIYDVK
Km [9]: 314.9 ± 15.5 µM
Km ([10]; best-fit ± standard error, n=3): 1475 ± 79.28 ^ μM
Km [10]: 1.5 mM
